Data on 27 compounds can be found in patent US20210261553A1, “FUSED TETRAZOLES AS LRRK2 INHIBITORS” (E-SCAPE Bio, Inc., priority 2018, published 2021).

SMILES strings stand for the structures. Bounds are passed on as bounds.

For orientation: IC50 means the midpoint of a concentration-inhibition curve.

The target of test [1] is T1, Recombinant wild type LRRK2 protein (Homo sapiens, UniProt Q5S007).
T1 construct: purchased Life Technologies PR8604B
The test can be described thus: LRRK2 kinase activity assay (LanthaScreen TR-FRET), wild type. The format is biochemical. The following applies: 400 nM LRRKtide, 25 μM ATP, 60 min at room temperature; read-out: LRRK2 WT IC50. The method, then:
(§1) LRRK2 kinase activity was measured using a LanthaScreen™ Kinase Activity Assay from ThermoFisher Scientific. Recombinant wild type or G2019S-LRRK2 protein (Life Technologies, PR8604B or PV4881, respectively), was incubated with a fluorescein-labeled peptide substrate called LRRKtide that is based upon ezrin/radixin/moesin (ERM) (Life Technologies, PV4901) in the presence of ATP and serially diluted compound. After an incubation period of 1 hr, the phosphotransferase activity was stopped and a terbium-labelled anti-pERM antibody (Life Technologies, PV4899) was added to detect the phosphorylation of LRRKtide by measuring the time resolved-Forster resonant energy transfer (TR-FRET) signal from the terbium label on the antibody to the fluorescein tag on LRRKtide, expressed as the 520 nm/495 nm emission ratio. Compound-dependent inhibition of the TR-FRET signal was used to generate a concentration-response curve for IC50 determination.
(§2) The assay was carried out under the following protocol conditions: 1 mM compound in DMSO was serially diluted 1:3, 11 points in DMSO with a Biomek FX and 0.1 μL of the diluted compound was subsequently stamped into the assay plate (384-well format Lumitrac 200, Greiner, 781075) with an Echo Labcyte such that the final compound concentration in the assay was 10 μM to […]. Subsequently, 5 μL of 2× kinase solution (2.9 nM final concentration) was added to the assay plate in assay buffer composed of 50 mM Tris pH 8.5 (Sigma, T6791), 5 mM MgCl2 (Fluka, 63020), 1 mM EGTA (Sigma, E3889), 0.01% BRU-35 (Sigma, P1254) and 2 mM DTT. The reaction was started by addition of 2×ATP/LRRKtide solution in assay buffer such that the final concentration was 400 nM LRRKtide and 25 μM ATP. After 60 min incubation at room temperature, the reaction was stopped by addition of […] containing a final concentration of 2 nM anti-pERM antibody and […]. After a 30 min incubation at RT, the TR-FRET signal was measured on a Wallac 2104 EnVision® multilabel reader at an excitation wavelength of 340 nm and reading emission at 520 nm and 495 nm. The ratio of the 520 nm and 495 nm emission was used to analyze the data.
On the technique in general: In TR-FRET formats the signal depends on donor and acceptor labels being close together.

The target in test [2] is T2, Recombinant G2019S-LRRK2 protein (Homo sapiens, UniProt Q5S007, G2019S).
T2 construct: purchased Life Technologies PV4881
As to the kind of experiment: LRRK2 kinase activity assay (LanthaScreen TR-FRET), G2019S mutant. The format is biochemical. The following applies: 400 nM LRRKtide, 25 μM ATP, 60 min at room temperature. The method, then:
as §1, §2

T2 sequence (Q5S007 970-2527 G2019S limits assumed): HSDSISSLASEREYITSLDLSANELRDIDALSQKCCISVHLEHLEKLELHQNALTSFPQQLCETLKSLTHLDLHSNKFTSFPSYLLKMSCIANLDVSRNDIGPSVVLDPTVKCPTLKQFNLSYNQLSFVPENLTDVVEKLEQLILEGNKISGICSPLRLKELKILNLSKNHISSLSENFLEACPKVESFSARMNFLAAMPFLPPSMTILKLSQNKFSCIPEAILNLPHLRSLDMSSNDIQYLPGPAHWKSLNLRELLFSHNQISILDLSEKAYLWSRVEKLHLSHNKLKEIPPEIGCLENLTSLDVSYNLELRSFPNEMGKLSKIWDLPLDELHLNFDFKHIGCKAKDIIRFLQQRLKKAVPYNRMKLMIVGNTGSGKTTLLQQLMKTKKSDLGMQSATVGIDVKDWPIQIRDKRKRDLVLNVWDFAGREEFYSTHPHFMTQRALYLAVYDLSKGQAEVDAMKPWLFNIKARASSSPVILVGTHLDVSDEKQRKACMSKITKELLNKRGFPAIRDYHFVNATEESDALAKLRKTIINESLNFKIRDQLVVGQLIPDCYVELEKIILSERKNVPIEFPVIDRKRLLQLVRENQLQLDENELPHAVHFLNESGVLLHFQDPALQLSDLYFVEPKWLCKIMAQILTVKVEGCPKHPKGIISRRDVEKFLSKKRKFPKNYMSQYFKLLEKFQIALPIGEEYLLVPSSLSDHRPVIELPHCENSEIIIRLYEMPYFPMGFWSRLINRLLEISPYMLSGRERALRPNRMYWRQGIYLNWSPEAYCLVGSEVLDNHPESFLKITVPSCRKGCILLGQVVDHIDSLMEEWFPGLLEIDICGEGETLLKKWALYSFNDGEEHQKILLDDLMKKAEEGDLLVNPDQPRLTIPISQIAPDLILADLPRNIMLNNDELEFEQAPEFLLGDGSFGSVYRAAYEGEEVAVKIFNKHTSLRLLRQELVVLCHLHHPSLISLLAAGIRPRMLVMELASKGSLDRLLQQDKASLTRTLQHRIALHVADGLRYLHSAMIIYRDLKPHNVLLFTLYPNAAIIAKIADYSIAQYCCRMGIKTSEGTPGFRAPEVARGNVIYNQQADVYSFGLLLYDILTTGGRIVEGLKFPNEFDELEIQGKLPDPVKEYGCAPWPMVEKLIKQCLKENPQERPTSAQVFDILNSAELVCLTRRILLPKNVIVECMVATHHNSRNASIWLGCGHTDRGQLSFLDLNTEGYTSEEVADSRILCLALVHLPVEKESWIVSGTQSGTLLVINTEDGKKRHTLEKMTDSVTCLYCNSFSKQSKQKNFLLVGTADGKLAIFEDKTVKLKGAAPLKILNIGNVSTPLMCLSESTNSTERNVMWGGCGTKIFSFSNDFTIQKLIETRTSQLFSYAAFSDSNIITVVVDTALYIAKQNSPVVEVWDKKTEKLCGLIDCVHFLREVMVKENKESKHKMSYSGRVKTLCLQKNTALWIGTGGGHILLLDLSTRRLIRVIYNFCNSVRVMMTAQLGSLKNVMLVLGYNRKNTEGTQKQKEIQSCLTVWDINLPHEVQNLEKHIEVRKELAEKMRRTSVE
T1 sequence (Q5S007 whole entry): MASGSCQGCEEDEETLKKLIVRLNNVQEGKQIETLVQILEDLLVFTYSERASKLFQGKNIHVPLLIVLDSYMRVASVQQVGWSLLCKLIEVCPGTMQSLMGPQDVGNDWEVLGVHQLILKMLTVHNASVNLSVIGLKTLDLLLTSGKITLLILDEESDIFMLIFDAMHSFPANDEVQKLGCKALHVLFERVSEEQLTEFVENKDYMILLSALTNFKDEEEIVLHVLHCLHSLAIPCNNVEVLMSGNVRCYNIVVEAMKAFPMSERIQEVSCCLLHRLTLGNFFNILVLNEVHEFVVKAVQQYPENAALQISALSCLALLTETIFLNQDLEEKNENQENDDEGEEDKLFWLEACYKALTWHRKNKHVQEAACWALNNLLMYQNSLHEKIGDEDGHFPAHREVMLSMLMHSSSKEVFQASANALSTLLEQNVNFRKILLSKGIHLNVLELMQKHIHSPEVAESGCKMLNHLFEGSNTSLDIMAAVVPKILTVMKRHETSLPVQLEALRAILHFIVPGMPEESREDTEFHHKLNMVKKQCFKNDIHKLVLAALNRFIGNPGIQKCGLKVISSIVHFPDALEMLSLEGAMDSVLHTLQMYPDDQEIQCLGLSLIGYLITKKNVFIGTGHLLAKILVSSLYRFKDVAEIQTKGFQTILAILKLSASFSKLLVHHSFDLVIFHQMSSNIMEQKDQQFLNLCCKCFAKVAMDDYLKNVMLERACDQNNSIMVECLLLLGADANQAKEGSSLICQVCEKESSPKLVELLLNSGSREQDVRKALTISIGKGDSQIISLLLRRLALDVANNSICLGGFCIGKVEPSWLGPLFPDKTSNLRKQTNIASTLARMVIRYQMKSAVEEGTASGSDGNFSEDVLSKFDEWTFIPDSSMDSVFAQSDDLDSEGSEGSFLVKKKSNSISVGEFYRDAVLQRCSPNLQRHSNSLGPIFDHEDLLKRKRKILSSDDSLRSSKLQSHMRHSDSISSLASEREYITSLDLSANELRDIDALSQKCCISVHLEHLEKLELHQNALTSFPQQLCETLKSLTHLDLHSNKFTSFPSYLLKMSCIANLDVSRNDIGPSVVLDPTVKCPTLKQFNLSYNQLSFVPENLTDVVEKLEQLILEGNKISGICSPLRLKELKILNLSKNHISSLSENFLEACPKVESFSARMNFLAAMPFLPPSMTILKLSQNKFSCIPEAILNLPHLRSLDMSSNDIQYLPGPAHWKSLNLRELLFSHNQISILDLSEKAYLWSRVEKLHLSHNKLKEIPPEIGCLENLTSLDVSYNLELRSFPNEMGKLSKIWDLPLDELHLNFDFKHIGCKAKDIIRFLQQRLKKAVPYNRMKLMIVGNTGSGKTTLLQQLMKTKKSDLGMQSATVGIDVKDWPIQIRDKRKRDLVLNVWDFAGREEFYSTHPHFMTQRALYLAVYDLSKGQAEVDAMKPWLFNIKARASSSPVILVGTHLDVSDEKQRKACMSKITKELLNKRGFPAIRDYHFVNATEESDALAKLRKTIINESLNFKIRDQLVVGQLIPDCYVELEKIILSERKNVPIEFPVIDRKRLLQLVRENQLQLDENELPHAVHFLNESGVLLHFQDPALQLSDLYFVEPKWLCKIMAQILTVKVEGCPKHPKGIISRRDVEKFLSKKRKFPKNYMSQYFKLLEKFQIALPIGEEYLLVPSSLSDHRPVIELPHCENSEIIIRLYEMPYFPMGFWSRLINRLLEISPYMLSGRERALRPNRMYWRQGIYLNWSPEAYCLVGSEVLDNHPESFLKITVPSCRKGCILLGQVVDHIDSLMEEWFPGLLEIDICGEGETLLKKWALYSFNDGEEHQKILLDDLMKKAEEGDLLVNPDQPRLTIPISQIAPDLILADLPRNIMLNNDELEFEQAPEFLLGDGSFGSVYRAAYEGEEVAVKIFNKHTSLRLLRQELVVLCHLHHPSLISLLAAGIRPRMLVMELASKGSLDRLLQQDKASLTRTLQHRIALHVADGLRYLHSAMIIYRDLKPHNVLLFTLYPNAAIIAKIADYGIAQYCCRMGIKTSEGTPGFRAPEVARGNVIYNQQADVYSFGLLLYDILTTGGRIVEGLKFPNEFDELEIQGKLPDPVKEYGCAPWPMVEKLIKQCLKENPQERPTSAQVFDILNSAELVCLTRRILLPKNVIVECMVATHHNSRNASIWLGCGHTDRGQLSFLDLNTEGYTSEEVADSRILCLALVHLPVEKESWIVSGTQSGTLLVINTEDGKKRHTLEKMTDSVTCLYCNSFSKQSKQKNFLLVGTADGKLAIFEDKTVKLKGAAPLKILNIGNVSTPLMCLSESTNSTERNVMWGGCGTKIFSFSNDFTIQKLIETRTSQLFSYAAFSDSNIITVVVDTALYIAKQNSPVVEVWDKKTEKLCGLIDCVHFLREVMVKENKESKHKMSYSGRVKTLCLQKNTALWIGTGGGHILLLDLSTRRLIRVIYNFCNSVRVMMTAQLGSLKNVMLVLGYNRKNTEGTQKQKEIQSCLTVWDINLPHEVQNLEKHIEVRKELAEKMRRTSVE

On to `CC1=C(C(=O)Nc2ccc3[nH]ncc3c2)Cn2nnnc2N1CCN1CCOCC1` [Example 4, N-(1H-Indazol-5-yl)-5-methyl-4-[2-(morpholin-4-yl)ethyl]-4H,7H-[1,2,3,4]tetrazolo[1,5-a]pyrimidine-6-carboxamide], for which the IC50 in test [1] and in test [2] was 1000 to 10000 nM in each case. On to `CCC1=C(C(=O)Nc2ccc3[nH]ncc3c2)Cn2nnnc2N1C` [Example 5, 5-Ethyl-N-(1H-indazol-5-yl)-4-methyl-4H,7H-[1,2,3,4]tetrazolo[1,5-a]pyrimidine-6-carboxamide], for which the IC50 in test [1] and in test [2] was 100 to 1000 nM in each case.

Take `CC1=C(C(=O)Nc2ccc3[nH]nc(-c4ccncc4)c3c2)Cn2nnnc2N1C` [Example 6, 4,5-dimethyl-N-(3-(pyridin-4-yl)-1H-indazol-5-yl)-4,7-dihydrotetrazolo[1,5-a]pyrimidine-6-carboxamide]: the IC50 in test [1] and in test [2] was at most 100 nM each time. For `CC1=C(C(=O)Nc2ccc3[nH]c(=O)[nH]c3c2)Cn2nnnc2N1C` [Example 31, 4,5-dimethyl-N-(2-oxo-2,3-dihydro-1H-benzo[d]imidazol-5-yl)-4,7-dihydrotetrazolo[1,5-a]pyrimidine-6-carboxamide], the results for the 50% inhibitory concentration (IC50) in test [1] and in test [2] were 1000 to 10000 nM and 100 to 1000 nM, respectively. Taken in the same sequence, the figures for `CC1=C(C(=O)Nc2ccc3[nH]c(=O)n(C)c3c2)[C@@H](C)n2nnnc2N1C` [Example 47, (R)-4,5,7-Trimethyl-N-(3-methyl-2-oxo-2,3-dihydro-1H-benzo[d]imidazol-5-yl)-4,7-dihydrotetrazolo[1,5-a]pyrimidine-6-carboxamide] were 1000 to 10000 nM and at most 100 nM.

Regarding `CC1=C(C(=O)Nc2ccc3c(c2)CC(=O)N3)Cn2nnnc2N1C` [Example 29, 4,5-dimethyl-N-(2-oxoindolin-5-yl)-4,7-dihydrotetrazolo[1,5-a]pyrimidine-6-carboxamide], the IC50 in test [2] fell in the range of 1000 to 10000 nM. Consider `CC1=C(C(=O)Nc2cc3c[nH]nc3cc2C(N)=O)Cn2nnnc2N1C` [Example 20, N-(6-carbamoyl-2H-indazol-5-yl)-4,5-dimethyl-4,7-dihydrotetrazolo[1,5-a]pyrimidine-6-carboxamide], for which the IC50 in test [1] and in test [2] was 1000 to 10000 nM each time. As to `CC1=C(C(=O)Nc2ccc3[nH]ncc3c2)C(C)n2nnnc2N1C` (single isomer, unassigned) [Example 2b], the IC50 in test [1] lay in the range of 1000 to 10000 nM; in test [2], 100 to 1000 nM. Taken in the same sequence, the figures for `CC1=C(C(=O)Nc2cc3c[nH]nc3cc2N)C(C)n2nnnc2N1C` (centres unmarked) [Example 25, N-(6-amino-2H-indazol-5-yl)-4,5,7-trimethyl-4,7-dihydrotetrazolo[1,5-a]pyrimidine-6-carboxamide] were 1000 to 10000 nM and 1000 to 10000 nM.

In the case of `COC(=O)c1c(NC(=O)C2=C(C)N(C)c3nnnn3C2)ccc2n[nH]cc12` [Example 61, Methyl 5-(4,5-dimethyl-4,7-dihydrotetrazolo[1,5-a]pyrimidine-6-carboxamido)-2H-indazole-4-carboxylate], the IC50 in test [1] and in test [2] was over 10000 nM in each case.

On to `CC1=C(C(=O)Nc2ccc3[nH]ncc3c2)Cn2nnnc2N1C(=O)N(C)C` [Example 12, N^6-(1H-indazol-5-yl)-N^4,N^4,5-trimethyltetrazolo[1,5-a]pyrimidine-4,6(7H)-dicarboxamide], for which the figures for the IC50 in test [1] and in test [2] were 100 to 1000 nM and at most 100 nM, respectively. Taken in the same sequence, the figures for `CC1=C(C(=O)Nc2cnc3n[nH]cc3c2)C(C)n2nnnc2N1C` (centres unmarked) [Example 16, 4,5,7-trimethyl-N-(2H-pyrazolo[3,4-b]pyridin-5-yl)-4,7-dihydrotetrazolo[1,5-a]pyrimidine-6-carboxamide] were 1000 to 10000 nM and 100 to 1000 nM. The corresponding values for `CC1=C(C(=O)Nc2ccc3[nH]nc(-c4cc(N5CCOCC5)ncn4)c3c2)Cn2nnnc2N1C` [Example 9, 4,5-Dimethyl-N-(3-(6-morpholinopyrimidin-4-yl)-1H-indazol-5-yl)-4,7-dihydrotetrazolo[1,5-a]pyrimidine-6-carboxamide] are at most 100 nM and at most 100 nM. Consider `CC1=C(C(=O)Nc2ccc3[nH]nc(-c4ccnc(N5CCOCC5)c4)c3c2)Cn2nnnc2N1C` [Example 7, 4,5-Dimethyl-N-(3-(2-morpholinopyridin-4-yl)-1H-indazol-5-yl)-4,7-dihydrotetrazolo[1,5-a]pyrimidine-6-carboxamide], for which the IC50 in test [1] and in test [2] was at most 100 nM in each case. For `CC1=C(C(=O)Nc2ccc3[nH]nc(-c4ccncc4)c3c2)[C@@H](C)n2nnnc2N1C` [Example 27, (R)-4,5,7-trimethyl-N-(3-(pyridin-4-yl)-1H-indazol-5-yl)-4,7-dihydrotetrazolo[1,5-a]pyrimidine-6-carboxamide], the IC50 in test [1] and in test [2] was at most 100 nM each time. As for `CC1=C(C(=O)Nc2ccc3c(N)nccc3c2)[C@@H](C)n2nnnc2N1C` [Example 42, (R)—N-(1-Aminoisoquinolin-6-yl)-4,5,7-trimethyl-4,7-dihydrotetrazolo[1,5-a]pyrimidine-6-carboxamide], the IC50 in test [1] is 100 to 1000 nM; in test [2], at most 100 nM.

With `CC1=C(C(=O)Nc2cc3c[nH]nc3cc2N)Cn2nnnc2N1C` [Example 21, N-(6-amino-2H-indazol-5-yl)-4,5-dimethyl-4,7-dihydrotetrazolo[1,5-a]pyrimidine-6-carboxamide], the IC50 in test [1] and in test [2] was 1000 to 10000 nM in each case.

Consider `CC(=O)Nc1[nH]nc2ccc(NC(=O)C3=C(C)N(C)c4nnnn4C3)cc12` [Example 28, N-(3-acetamido-2H-indazol-5-yl)-4,5-dimethyl-4,7-dihydrotetrazolo[1,5-a]pyrimidine-6-carboxamide], for which the results for the IC50 in test [1] and in test [2] were over 10000 nM and 1000 to 10000 nM, respectively. Regarding `CC1=C(C(=O)Nc2ccc3c(c2)C(C)(C)NC3=O)[C@@H](C)n2nnnc2N1C` [Example 49, (R)—N-(3,3-Dimethyl-1-oxoisoindolin-5-yl)-4,5,7-trimethyl-4,7-dihydrotetrazolo[1,5-a]pyrimidine-6-carboxamide], the IC50 in test [1] and in test [2] was over 10000 nM each time. Turning to `CCC1C(C(=O)Nc2ccc3[nH]ncc3c2)=C(C)N(C)c2nnnn21` (racemic) [Example 8, 7-Ethyl-N-(1H-indazol-5-yl)-4,5-dimethyl-4H,7H-[1,2,3,4]tetrazolo[1,5-a]pyrimidine-6-carboxamide], the IC50 in test [1] is 100 to 1000 nM; in test [2], at most 100 nM. In the case of `CC1=C(C(=O)Nc2ccc3[nH]ncc3c2)C(C)(C)n2nnnc2N1C` [Example 26, N-(2H-indazol-5-yl)-4,5,7,7-tetramethyl-4,7-dihydrotetrazolo[1,5-a]pyrimidine-6-carboxamide], the IC50 was 1000 to 10000 nM in test [1] and at most 100 nM in test [2]. Taken in the same sequence, the figures for `CC1=C(C(=O)Nc2ccc3n[nH]c(Br)c3c2)[C@@H](C)n2nnnc2N1C` [Example 22, (7R)—N-(3-bromo-2H-indazol-5-yl)-4,5,7-trimethyl-4,7-dihydrotetrazolo[1,5-a]pyrimidine-6-carboxamide] were at most 100 nM and at most 100 nM. Taken in the same sequence, the figures for `CCC1C(C(=O)Nc2ccc3[nH]ncc3c2)=C(C)N(C)c2nnnn21` (single isomer, unassigned) [Example 8a] were 100 to 1000 nM and at most 100 nM. Taken in the same sequence, the figures for `CC1=C(C(=O)Nc2ccc3[nH]ncc3c2)Cn2nnnc2N1C` [Example 1, N-(1H-Indazol-5-yl)-4,5-dimethyl-4H,7H-[1,2,3,4]tetrazolo[1,5-a]pyrimidine-6-carboxamide] were 100 to 1000 nM and at most 100 nM. As to `CC1=C(C(=O)Nc2ccc3[nH]ncc3c2)C(C)n2nnnc2N1C` (single isomer, unassigned) [Example 2a], the IC50 in test [1] and in test [2] was at most 100 nM throughout.

In the case of `CC1=C(C(=O)Nc2cc3cn[nH]c3cn2)C(C)n2nnnc2N1C` (racemic) [Example 23, 4,5,7-trimethyl-N-(1H-pyrazolo[3,4-c]pyridin-5-yl)-4,7-dihydrotetrazolo[1,5-a]pyrimidine-6-carboxamide], the results for the IC50 in test [1] and in test [2] were 100 to 1000 nM and at most 100 nM, respectively. For `CC1=C(C(=O)Nc2ccc3[nH]ncc3c2)C(C)n2nnnc2N1C` (centres unmarked) [Example 2, N-(1H-indazol-5-yl)-4,5,7-trimethyl-4H,7H-[1,2,3,4]tetrazolo[1,5-a]pyrimidine-6-carboxamide], the IC50 is 100 to 1000 nM in test [1] and at most 100 nM in test [2].
